Columns and labels:
Test in all cases: relative viability (nuclei count vs DMSO), 5 days (fraction); higher = more cells survive
FG-4592 + Crizotinib = compound: Cc1nc(C(=O)NCC(=O)O)c(O)c2ccc(Oc3ccccc3)cc12 [FG-4592] + C[C@@H](Oc1cc(-c2cnn(C3CCNCC3)c2)cnc1N)c1c(Cl)ccc(F)c1Cl [Crizotinib] (partner 1 µM)
Summary of the method: (§1)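 A single step with final 0.05% Triton X-100, 1% formaldehyde and 1 ug/ml Hoechst fixed the cells and stained nuclei 5 days after treatment. Lung cancer cell lines in 1536-well plates had been treated by pin tool the day after seeding with one drug alone or a fixed anchor-drug dose plus five library-drug doses (not always all listed) in √10 steps, and nuclei were counted on 4× images. Relative viability is the ratio of nuclei in treated wells to nuclei in vehicle wells, taken as the median of duplicate plates.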

FG-4592 + Olaparib = compound: Cc1nc(C(=O)NCC(=O)O)c(O)c2ccc(Oc3ccccc3)cc12 [FG-4592] + O=C(c1cc(Cc2n[nH]c(=O)c3ccccc23)ccc1F)N1CCN(C(=O)C2CC2)CC1 [Olaparib] (partner 8 µM)
Summary of the method: as §1

FG-4592 + Pemetrexed = compound: Cc1nc(C(=O)NCC(=O)O)c(O)c2ccc(Oc3ccccc3)cc12 [FG-4592] + Nc1nc2[nH]cc(CCc3ccc(C(=O)N[C@@H](CCC(=O)O)C(=O)O)cc3)c2c(=O)[nH]1 [Pemetrexed] (partner 0.2 µM)
Summary of the method: as §1

IU1-47 + Linsitinib = compound: CC1=CC(=C(N1C2=CC=C(C=C2)Cl)C)C(=O)CN3CCCCC3 [IU1-47] + C[C@]1(O)C[C@@H](c2nc(-c3ccc4ccc(-c5ccccc5)nc4c3)c3c(N)nccn32)C1 [Linsitinib] (partner 1 µM)
Summary of the method: as §1

Cell Line | relative viability (FG-4592 + Crizotinib; first compound 0.08 µM) | relative viability (FG-4592 + Crizotinib; first compound 0.253 µM) | relative viability (FG-4592 + Crizotinib; first compound 0.8 µM) | relative viability (FG-4592 + Crizotinib; first compound 2.53 µM) | relative viability (FG-4592 + Crizotinib; first compound 8 µM) | relative viability (FG-4592 + Olaparib; first compound 0.08 µM) | relative viability (FG-4592 + Olaparib; first compound 0.253 µM) | relative viability (FG-4592 + Olaparib; first compound 0.8 µM) | relative viability (FG-4592 + Olaparib; first compound 2.53 µM) | relative viability (FG-4592 + Olaparib; first compound 8 µM) | relative viability (FG-4592 + Pemetrexed; first compound 0.08 µM) | relative viability (FG-4592 + Pemetrexed; first compound 0.253 µM) | relative viability (FG-4592 + Pemetrexed; first compound 0.8 µM) | relative viability (FG-4592 + Pemetrexed; first compound 2.53 µM) | relative viability (FG-4592 + Pemetrexed; first compound 8 µM) | relative viability (IU1-47 + Linsitinib; first compound 0.08 µM) | relative viability (IU1-47 + Linsitinib; first compound 0.253 µM) | relative viability (IU1-47 + Linsitinib; first compound 0.8 µM) | relative viability (IU1-47 + Linsitinib; first compound 2.53 µM) | relative viability (IU1-47 + Linsitinib; first compound 8 µM)
NCI-H1755 | 0.77 | 0.875 | 0.864 | 0.941 | 0.916 | 0.873 | 0.837 | 0.762 | 0.907 | 0.799 | 0.417 | 0.483 | 0.46 | 0.4 | 0.453 | 1.03 | 1.03 | 1.06 | 1.05 | 0.962
HCC-78 | 0.312 | 0.332 | 0.269 | 0.31 | 0.337 | 0.717 | – | 0.788 | 0.759 | 0.733 | 0.941 | – | 0.901 | 0.871 | 0.909 | 0.555 | 0.506 | 0.521 | 0.474 | 0.417
NCI-H322M | 0.924 | 0.886 | 1.19 | 1.02 | 0.815 | – | 0.746 | 0.713 | 0.766 | 0.897 | – | 0.614 | 0.613 | 0.546 | 0.63 | 1 | 0.88 | 1.03 | 0.927 | 0.887
NCI-H3122 | 0.277 | 0.271 | 0.26 | 0.3 | 0.255 | 0.637 | 0.606 | 0.681 | 0.656 | 0.661 | 0.197 | 0.191 | 0.194 | 0.187 | 0.211 | 1 | 1.07 | 1.08 | 1.15 | 1.01
COR-L23 | 0.574 | 0.571 | 0.833 | 0.679 | 0.638 | 0.331 | 0.358 | 0.358 | 0.3 | 0.369 | 0.205 | 0.204 | 0.171 | 0.194 | 0.187 | 0.943 | 1 | 0.943 | 0.899 | 0.982
NCI-H2087 | 0.722 | 0.648 | 1.01 | 0.997 | 0.896 | 0.561 | 0.51 | 0.645 | – | 0.475 | 0.604 | 0.565 | 0.658 | – | 0.591 | 0.947 | 0.953 | 0.93 | 1.14 | 1
LC-2-ad | 0.433 | 0.412 | 0.48 | 0.508 | 0.486 | 0.683 | 0.694 | 0.725 | 0.755 | 0.782 | 0.29 | 0.29 | 0.269 | 0.26 | 0.288 | 0.863 | 0.91 | 0.845 | 0.853 | 0.918
NCI-H1915 | 0.87 | 0.883 | 0.922 | 0.874 | 0.905 | 0.25 | 0.248 | 0.276 | 0.253 | 0.282 | 0.469 | 0.44 | 0.542 | 0.475 | 0.477 | 1.15 | 1.12 | 1.15 | – | 1.14

Source: the supplement of paper PMC10307832
